In brackets after ≈: the same amount, converted by molar mass.

A short description of one series: Solubility. The class given is physicochemical.
The nature of series [1]: Antimicrobial activity of synthesized versus extracted substance. To be noted: synthesis method vs extraction method.
The subject of another series is Aspergillus niger. Put plainly: Antimicrobial spectrum, minimum growth inhibiting concentration (MIC). The following applies: 72 h, Sabouraud's medium pH 5 to 6, 25° C., 3 days. The series is classed as cell-based. As to the method: (§1) The antimicrobial spectrum was determined using Sabouraud's medium. Three hundred milligrams of o-methoxycinnamaldehyde was dissolved in 15 ml of methanol and diluted to give solutions with different concentrations. An aliquot of 0.1 ml of the solutions was charged into a test tube. Each 10 ml of the sterilized Sabouraud's medium of pH of 5 to 6 was charged into each of the above-mentioned test tube and well mixed with the solution of the present substance. A variety of microbial species were provided and each species was suspended in a physiological salt solution in an amount of 10^5 /ml.

Series [2] concerns Trichophyton mentagrophytes. The series is described as above. The class given is cell-based. To be noted: 72 h, Sabouraud's medium pH 5 to 6, 25° C., 3 days. Here is the method: as §1
Another series concerns Candida albicans. The series is described as above. The class given is cell-based. To be noted: 72 h, Sabouraud's medium pH 5 to 6, 25° C., 3 days. Here is the method:
as §1

Another series relates to Escherichia coli. Described as above. The series is classed as cell-based. To be noted: 72 h, Sabouraud's medium pH 5 to 6, 25° C., 3 days. Here is the method:
as §1

The test system of the next series is Aspergillus fumigatus. The series is described as above. The series is classed as cell-based. To be noted: 72 h, Sabouraud's medium pH 5 to 6, 25° C., 3 days. Here is the method:
as §1

Another series concerns Cryptococcus neoformans. The description is as above. The class given is cell-based. To be noted: 72 h, Sabouraud's medium pH 5 to 6, 25° C., 3 days. As to the method: as §1
In another series the test system is Microsporum gypseum. The series is described as above. The class given is cell-based. The following applies: Nannizzia gypsea, 72 h; Sabouraud's medium pH 5 to 6, 25° C., 3 days. Here is the method: as §1
The test system of a further series is Staphylococcus aureus. The description is as above. The class given is cell-based. To be noted: 72 h, Sabouraud's medium pH 5 to 6, 25° C., 3 days. Here is the method: as §1
The next series relates to Microsporum canis. The series is described as above. The following applies: 72 h, Sabouraud's medium pH 5 to 6, 25° C., 3 days. The series is classed as cell-based. Here is the method:
as §1

A further series deals with Trichophyton rubrum. The description is as above. To be noted: 72 h, Sabouraud's medium pH 5 to 6, 25° C., 3 days. The class given is cell-based. Here is the method:
as §1

The nature of series [3]: Acute toxicity (LD50, mortality one week after administration, Litchfield-Wilcoxon; autopsy after oral administration). The class given is in vivo, ICR-JCL female mice. To be noted: for LD50 at 168 h: mouse, in vivo, mice, 10 tested, one week after administration. The text has this:
Ortho-methoxycinnamaldehyde was suspended in a mixed sulution of 1 part of Tween (mfd. Atlas Powder Co.) and 2 parts of a physiological salt solution. Commercially available ICR-JCL female mice (with a body weight of 22±1 g) were used for the toxicity tests, in which the mice were divided into groups, one being subjected to the percutaneous administration (p.c.) and the other group subjected to the oral administration (p.o.) and, one week after the administration their mortality was observed.

A short description of series [4]: Subacute toxicity, daily administration over 3 months. The class given is in vivo, mice. The following applies: every day over 3 months, oral 100 mg/kg and percutaneous 250 mg/kg, respectively. Here is the method:
Further, in order to determine the subacute toxicity of the present substance, it was administered to mice every day over 3 months via an oral and a percutaneous routes using the dosage of 100 mg/kg and 250 mg/kg, respectively.

[5] abbreviates: one week after oral administration.

For orientation: MIC means the smallest concentration in the dilution series that meets the test's criterion for growth inhibition. Read a high MIC as weaker potency. Broadly, the LD50 is the dose expected to kill half of the subjects tested. High values mean lower toxicity, low ones greater toxicity. Turning to `COc1ccccc1C=CC=O` [o-methoxycinnamaldehyde], the “Solubility in methanol, ethanol, acetone, benzene and chloroform” value in the series “Solubility” (methanol, ethanol, acetone, benzene and chloroform) is “Soluble in methanol, ethanol, acetone, benzene and chloroform”. The Solubility in water entry in the series “Solubility” (water) is given as “insoluble in water”. Also, the “Antimicrobial activity of substance obtained by synthesis compared with that obtained by extraction” value in series [1] is “identical in physical properties and antimicrobial activity to that obtained from the extraction method”. Moreover, the MIC with Aspergillus niger came out at 200 µg/mL (≈ 1230 µM); in series [2] it was 12.5 µg/mL (≈ 77.1 µM); with Candida albicans, 50 µg/mL (≈ 308 µM); in the series with Escherichia coli, 60 µg/mL (≈ 370 µM); against Aspergillus fumigatus, 100 µg/mL (≈ 617 µM); against Cryptococcus neoformans it was 12.5 µg/mL (≈ 77.1 µM). Besides, the MIC turned out to be 25 µg/mL (≈ 154 µM) in the series with Microsporum gypseum, 50 µg/mL (≈ 308 µM) in the series with Staphylococcus aureus, 6.25 µg/mL (≈ 38.5 µM) in the series with Microsporum canis and 12.5 µg/mL (≈ 77.1 µM) against Trichophyton rubrum. For the same molecule, the LD50 at 168 h was determined as 8670 mg/kg in [3] (topical or ocular, percutaneous (p.c.)) and 4430 mg/kg in [3] (oral (p.o.)). For the same molecule, the “Autopsy findings in appearance and visceral observation” value in series [3] (setting [5]) was “no specific abnormal finding was obtained in appearance and also in visceral observation”. Moreover, the Toxic symptom result in [3] (setting [5]) is listed as “no specific toxic sympton was observed”. For the same molecule, the “Death or abnormal symptom (subacute toxicity)” value in series [4] is “neither death nor abnormal symptom was observed”.

(Values after patent US4202877A, “Antidermatomycotic agent” (Kureha Kagaku Kogyo Kabushiki Kaisha, priority 1977, dated 1980).)
